Data reported in article PMC5533763, “Two dopamine D2-like receptor genes from the silkworm (Bombyx mori) and their evolutionary history in metazoan” (Scientific Reports, 2017).

Biological target: T1, BmDop2R2 (Bombyx mori, UniProt A0A2D1QSC3)
T1 construct: full-length ORF (536 residues printed; 1596 bp ORF, which would give about 531; 7 TM) in pcDNA3.1(+), HindIII/NotI, transfected HEK-293 cells; no tag mentioned; chromosome 18, nscaf 2901; tandem paralogue of BmDop2R1 (440 residues, lacks TM I-II)
T1 sequence (A0A2D1QSC3 1-536): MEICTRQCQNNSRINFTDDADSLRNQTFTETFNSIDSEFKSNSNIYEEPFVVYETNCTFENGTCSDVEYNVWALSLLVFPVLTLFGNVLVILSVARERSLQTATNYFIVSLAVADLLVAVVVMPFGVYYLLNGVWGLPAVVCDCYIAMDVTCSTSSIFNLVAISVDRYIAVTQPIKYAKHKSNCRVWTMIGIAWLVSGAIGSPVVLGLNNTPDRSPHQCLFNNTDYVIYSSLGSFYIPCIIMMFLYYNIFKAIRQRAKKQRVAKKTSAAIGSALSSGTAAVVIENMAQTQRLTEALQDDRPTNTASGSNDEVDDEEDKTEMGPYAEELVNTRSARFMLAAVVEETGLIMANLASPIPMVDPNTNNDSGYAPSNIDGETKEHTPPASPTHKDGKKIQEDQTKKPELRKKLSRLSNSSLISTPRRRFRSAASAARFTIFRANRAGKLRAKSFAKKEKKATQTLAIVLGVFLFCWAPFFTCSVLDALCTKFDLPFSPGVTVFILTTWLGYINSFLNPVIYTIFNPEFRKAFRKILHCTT
Experiment: cAMP ELISA in transfected HEK-293 cells (inhibition of forskolin-stimulated cAMP)
Format: cell-based

**Q.** With `NCCc1ccc(O)c(O)c1` [dopamine] as the molecule, how does the EC50 read?
**A.** Its EC50 is 657 nM.
